# Results from PMC11868595, “Safety, pharmacokinetics and efficacy of HA121-28 in patients with advanced solid tumors and RET fusion-positive non-small-cell lung cancer: a multicenter, open-label, single-arm phase 1/2 trial” (Signal Transduction and Targeted Therapy, 2025).
# Like-named read-outs stand apart in the source and are kept apart here. Marks after values point to notes of the source that are not given here.
# Legend:
# [1] = test system: patients of phase 1 and phase 2 trials; assay: Phase 1/2 pooled TRAEs with or without previous immunotherapy; assay type: in vivo, human
# Method: Treatment-emergent adverse events (TEAEs) were documented during the entire study period. The predefined adverse event of special interest (AESI) was ≥ grade 3 prolonged QT interval. Tumor imaging was performed using contrast-enhanced computed tomography or magnetic resonance imaging at screening, Day 28 of the first cycle, then approximately every eight weeks till the end of the study for phase 1; in phase 2, imaging was scheduled at screening, and every eight weeks during the first 40 weeks, followed by every 12 weeks for the rest of the study period. RECIST 1.1 was used by the independent review committee or investigators for assessment of tumor response. After the original assessment, a repeated assessment was required around four weeks later to confirm a complete or partial response.
# The full analysis set consisted of all patients who had administered at least one dose of HA121-28 and was used to calculate the baseline characteristics, OS, and PFS results. The safety set included all patients who had administered at least one dose of the HA121-28 and had at least one safety-related observation. This population was used for analysis of TEAEs. The efficacy evaluable set consisted of patients who had administered at least one dose of HA121-28 and completed at least one efficacy assessment following study treatment. This population was used to calculate the ORR, DOR, and DCR. In addition, the ORRs for subgroup analyses, including age ( < 60, ≥60), ECOG PS (0 or 1), gender (male or female), prior treatment with TKIs (yes or no), brain or liver metastasis (yes or no), were also calculated. The plasma drug concentration-time profile was characterized using PK concentration set that included patients who had administered at least one dose of HA121-28 and had at least one measurable plasma concentration of HA121-28. The PK parameter set was used to calculate PK parameters, which consisted of patients who had administered at least one dose of HA121-28 with at least one valid PK parameter. ORR and DCR were described using the Clopper-Pearson method with two-sided 95% confidence intervals (CIs). PFS and DOR were assessed using the Kaplan-Meier method, including an estimate of the median, along with corresponding 95% CIs. Statistical analyses of clinical outcomes were conducted by SAS (version 9.4 or later) and R software 4.1.0 for genomic DNA from pre-treatment tumor tissue (http://cran.r-project.org).
# [2] = target: LCK (Homo sapiens, UniProt P06239); assay: Tyrosine kinase inhibition; assay type: biochemical
# [3] = test system: KYSE-150 cells; assay: Tumor cell proliferation in vitro; assay type: cell-based, human
# [4] = test system: human gastric cancer SGC-7901 tumors; assay: SGC-7901 tumors in nude mice; assay type: in vivo
# Description: (§1) was higher than that of vandetanib .
# as §1
# Table S16. Efficacy of HA121-28 on human gastric cancer SGC-7901 tumors
# [5] = Excretion after gastric lavage; assay type: in vivo, rats
# [6] = target: AXL (Homo sapiens, UniProt P30530); assay: Tyrosine kinase inhibition; assay type: biochemical
# [7] = target: TrkA (Homo sapiens, UniProt P04629); assay: Tyrosine kinase inhibition; assay type: biochemical
# [8] = With prior immunotherapy treatment (N=43)
# [9] = Without prior immunotherapy treatment (N=165)
# Sequence of AXL (P30530 26-894): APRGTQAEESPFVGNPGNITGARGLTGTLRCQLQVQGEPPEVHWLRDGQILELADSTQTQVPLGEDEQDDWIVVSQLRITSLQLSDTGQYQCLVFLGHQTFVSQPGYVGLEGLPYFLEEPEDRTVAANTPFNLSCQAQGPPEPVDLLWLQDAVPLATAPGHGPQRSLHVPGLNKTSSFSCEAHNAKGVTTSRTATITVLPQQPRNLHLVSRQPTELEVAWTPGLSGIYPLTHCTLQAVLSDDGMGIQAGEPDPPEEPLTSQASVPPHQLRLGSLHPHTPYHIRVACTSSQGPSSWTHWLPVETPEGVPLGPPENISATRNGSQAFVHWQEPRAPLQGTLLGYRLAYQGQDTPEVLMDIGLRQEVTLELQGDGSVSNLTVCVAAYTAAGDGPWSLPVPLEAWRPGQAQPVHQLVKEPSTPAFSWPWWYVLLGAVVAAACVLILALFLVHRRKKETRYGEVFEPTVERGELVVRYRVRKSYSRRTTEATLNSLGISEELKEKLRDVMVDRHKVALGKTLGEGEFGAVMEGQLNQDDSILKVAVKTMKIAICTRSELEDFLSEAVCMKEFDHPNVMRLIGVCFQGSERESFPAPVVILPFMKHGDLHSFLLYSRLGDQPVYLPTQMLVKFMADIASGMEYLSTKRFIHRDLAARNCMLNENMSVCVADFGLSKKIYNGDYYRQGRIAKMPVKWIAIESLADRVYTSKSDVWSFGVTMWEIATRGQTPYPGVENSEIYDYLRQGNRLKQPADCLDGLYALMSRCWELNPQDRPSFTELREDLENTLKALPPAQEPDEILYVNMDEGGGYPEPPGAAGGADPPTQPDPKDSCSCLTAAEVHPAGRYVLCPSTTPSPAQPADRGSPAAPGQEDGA
# Sequence of TrkA (P04629 33-796): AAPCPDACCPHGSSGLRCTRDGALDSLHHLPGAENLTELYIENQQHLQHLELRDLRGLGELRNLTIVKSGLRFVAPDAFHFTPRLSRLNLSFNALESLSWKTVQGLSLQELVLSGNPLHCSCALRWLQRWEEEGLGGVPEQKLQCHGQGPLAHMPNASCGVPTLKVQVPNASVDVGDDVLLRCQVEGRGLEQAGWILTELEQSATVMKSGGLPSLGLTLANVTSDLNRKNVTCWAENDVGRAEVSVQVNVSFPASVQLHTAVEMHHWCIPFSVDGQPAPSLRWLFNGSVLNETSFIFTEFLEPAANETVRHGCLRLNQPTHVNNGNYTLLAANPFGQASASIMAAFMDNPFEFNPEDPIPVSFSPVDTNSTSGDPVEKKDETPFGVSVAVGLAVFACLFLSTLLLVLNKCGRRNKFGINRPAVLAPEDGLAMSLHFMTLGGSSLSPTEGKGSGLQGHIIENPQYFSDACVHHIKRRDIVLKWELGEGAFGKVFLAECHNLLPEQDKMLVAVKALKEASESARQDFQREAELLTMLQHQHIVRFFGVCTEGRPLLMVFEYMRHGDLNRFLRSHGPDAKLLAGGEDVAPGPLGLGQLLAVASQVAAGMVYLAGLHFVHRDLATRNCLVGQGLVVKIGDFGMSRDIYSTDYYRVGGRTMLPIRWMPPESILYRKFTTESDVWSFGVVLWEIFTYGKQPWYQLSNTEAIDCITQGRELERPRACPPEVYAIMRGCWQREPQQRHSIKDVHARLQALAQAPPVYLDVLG
# Sequence of LCK (P06239 whole entry): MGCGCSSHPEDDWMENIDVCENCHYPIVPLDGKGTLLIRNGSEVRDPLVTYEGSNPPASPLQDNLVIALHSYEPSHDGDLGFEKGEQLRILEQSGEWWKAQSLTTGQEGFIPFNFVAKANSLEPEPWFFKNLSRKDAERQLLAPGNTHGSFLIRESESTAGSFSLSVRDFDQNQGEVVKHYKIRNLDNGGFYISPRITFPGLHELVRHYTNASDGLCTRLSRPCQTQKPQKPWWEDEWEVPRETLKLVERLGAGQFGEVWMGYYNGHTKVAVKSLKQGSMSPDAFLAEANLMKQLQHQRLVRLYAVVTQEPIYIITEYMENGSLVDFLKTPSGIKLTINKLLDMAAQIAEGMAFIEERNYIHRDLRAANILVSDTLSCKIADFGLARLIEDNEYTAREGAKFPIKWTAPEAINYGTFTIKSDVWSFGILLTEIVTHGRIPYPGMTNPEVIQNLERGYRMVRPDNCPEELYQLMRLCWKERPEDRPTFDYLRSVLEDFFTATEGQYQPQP
smiles,measurement,setting,value
"COc1cc2c(Nc3ccc(Br)cc3F)ncnc2cc1OCCCCN(C)C.Cl.Cl [HA121-28, N-(4-bromo-2-fluorophenyl)-7-(4-(dimethylamino)butoxy)-6-methoxy quinazolin-4-amine dihydrochloride]",incidence of ≥ grade-3 TRAE,[1]; 43 patients with previous immunotherapy,58.1%
same,incidence of ≥ grade-3 TRAE,[1]; 165 patients without previous immunotherapy,41.2%
same,"TRAE, All: ALT increased",[1]; [8],22 (51.2) count (percentage)
same,"TRAE, All: AST increased",[1]; [8],19 (44.2) count (percentage)
same,"TRAE, All: Anemia",[1]; [8],5 (11.6) count (percentage)
same,"TRAE, All: Any",[1]; [8],42 (97.7) count (percentage)
same,"TRAE, All: Blood creatinine increased",[1]; [8],11 (25.6) count (percentage)
same,"TRAE, All: Decreased appetite",[1]; [8],7 (16.3) count (percentage)
same,"TRAE, All: Decreased lymphocyte counts",[1]; [8],5 (11.6) count (percentage)
same,"TRAE, All: Diarrhea",[1]; [8],32 (74.4) count (percentage)
same,"TRAE, All: Fatigue",[1]; [8],6 (14.0) count (percentage)
same,"TRAE, All: Hypertension",[1]; [8],5 (11.6) count (percentage)
same,"TRAE, All: Hypoalbuminemia",[1]; [8],5 (11.6) count (percentage)
same,"TRAE, All: Hypokalemia",[1]; [8],9 (20.9) count (percentage)
same,"TRAE, All: Nausea",[1]; [8],6 (14.0) count (percentage)
same,"TRAE, All: Neutrophil counts decreased",[1]; [8],7 (16.3) count (percentage)
same,"TRAE, All: Platelet counts decreased",[1]; [8],7 (16.3) count (percentage)
same,"TRAE, All: Prolonged QT interval",[1]; [8],23 (53.5) count (percentage)
same,"TRAE, All: Proteinuria",[1]; [8],17 (39.5) count (percentage)
same,"TRAE, All: Rash",[1]; [8],31 (72.1) count (percentage)
same,"TRAE, All: Vomiting",[1]; [8],7 (16.3) count (percentage)
same,"TRAE, All: Weight loss",[1]; [8],6 (14.0) count (percentage)
same,"TRAE, All: White blood cell counts decreased",[1]; [8],7 (16.3) count (percentage)
same,"TRAE, ≥ Grade 3: ALT increased",[1]; [8],1 (2.3) count (percentage)
same,"TRAE, ≥ Grade 3: AST increased",[1]; [8],1 (2.3) count (percentage)
same,"TRAE, ≥ Grade 3: Anemia",[1]; [8],0 count (percentage)
same,"TRAE, ≥ Grade 3: Any",[1]; [8],25 (58.1) count (percentage)
same,"TRAE, ≥ Grade 3: Blood creatinine increased",[1]; [8],0 count (percentage)
same,"TRAE, ≥ Grade 3: Decreased appetite",[1]; [8],0 count (percentage)
same,"TRAE, ≥ Grade 3: Decreased lymphocyte counts",[1]; [8],0 count (percentage)
same,"TRAE, ≥ Grade 3: Diarrhea",[1]; [8],4 (9.3) count (percentage)
same,"TRAE, ≥ Grade 3: Fatigue",[1]; [8],0 count (percentage)
same,"TRAE, ≥ Grade 3: Hypertension",[1]; [8],0 count (percentage)
same,"TRAE, ≥ Grade 3: Hypoalbuminemia",[1]; [8],0 count (percentage)
same,"TRAE, ≥ Grade 3: Hypokalemia",[1]; [8],3 (7.0) count (percentage)
same,"TRAE, ≥ Grade 3: Nausea",[1]; [8],0 count (percentage)
same,"TRAE, ≥ Grade 3: Neutrophil counts decreased",[1]; [8],3 (7.0) count (percentage)
same,"TRAE, ≥ Grade 3: Platelet counts decreased",[1]; [8],0 count (percentage)
same,"TRAE, ≥ Grade 3: Prolonged QT interval",[1]; [8],12 (27.9) count (percentage)
same,"TRAE, ≥ Grade 3: Proteinuria",[1]; [8],0 count (percentage)
same,"TRAE, ≥ Grade 3: Rash",[1]; [8],3 (7.0) count (percentage)
same,"TRAE, ≥ Grade 3: Vomiting",[1]; [8],0 count (percentage)
same,"TRAE, ≥ Grade 3: Weight loss",[1]; [8],0 count (percentage)
same,"TRAE, ≥ Grade 3: White blood cell counts decreased",[1]; [8],1 (2.3) count (percentage)
same,"TRAE, All: ALT increased",[1]; [9],52 (31.5) count (percentage)
same,"TRAE, All: AST increased",[1]; [9],52 (31.5) count (percentage)
same,"TRAE, All: Anemia",[1]; [9],14 (8.5) count (percentage)
same,"TRAE, All: Any",[1]; [9],161 (97.6) count (percentage)
same,"TRAE, All: Blood creatinine increased",[1]; [9],33 (20.0) count (percentage)
same,"TRAE, All: Decreased appetite",[1]; [9],25 (15.2) count (percentage)
same,"TRAE, All: Decreased lymphocyte counts",[1]; [9],5 (3.0) count (percentage)
same,"TRAE, All: Diarrhea",[1]; [9],125 (75.8) count (percentage)
same,"TRAE, All: Fatigue",[1]; [9],22 (13.3) count (percentage)
same,"TRAE, All: Hypertension",[1]; [9],22 (13.3) count (percentage)
same,"TRAE, All: Hypoalbuminemia",[1]; [9],20 (12.1) count (percentage)
same,"TRAE, All: Hypokalemia",[1]; [9],26 (15.8) count (percentage)
same,"TRAE, All: Nausea",[1]; [9],37 (22.4) count (percentage)
same,"TRAE, All: Neutrophil counts decreased",[1]; [9],13 (7.9) count (percentage)
same,"TRAE, All: Platelet counts decreased",[1]; [9],12 (7.3) count (percentage)
same,"TRAE, All: Prolonged QT interval",[1]; [9],76 (46.1) count (percentage)
same,"TRAE, All: Proteinuria",[1]; [9],48 (29.1) count (percentage)
same,"TRAE, All: Rash",[1]; [9],88 (53.3) count (percentage)
same,"TRAE, All: Vomiting",[1]; [9],30 (18.2) count (percentage)
same,"TRAE, All: Weight loss",[1]; [9],6 (3.6) count (percentage)
same,"TRAE, All: White blood cell counts decreased",[1]; [9],14 (8.5) count (percentage)
same,"TRAE, ≥ Grade 3: ALT increased",[1]; [9],3 (1.8) count (percentage)
same,"TRAE, ≥ Grade 3: AST increased",[1]; [9],3 (1.8) count (percentage)
same,"TRAE, ≥ Grade 3: Anemia",[1]; [9],1 (0.6) count (percentage)
same,"TRAE, ≥ Grade 3: Any",[1]; [9],68 (41.2) count (percentage)
same,"TRAE, ≥ Grade 3: Blood creatinine increased",[1]; [9],2 (1.2) count (percentage)
same,"TRAE, ≥ Grade 3: Decreased appetite",[1]; [9],4 (2.4) count (percentage)
same,"TRAE, ≥ Grade 3: Decreased lymphocyte counts",[1]; [9],0 count (percentage)
same,"TRAE, ≥ Grade 3: Diarrhea",[1]; [9],12 (7.3) count (percentage)
same,"TRAE, ≥ Grade 3: Fatigue",[1]; [9],0 count (percentage)
same,"TRAE, ≥ Grade 3: Hypertension",[1]; [9],14 (8.5) count (percentage)
same,"TRAE, ≥ Grade 3: Hypoalbuminemia",[1]; [9],1 (0.6) count (percentage)
same,"TRAE, ≥ Grade 3: Hypokalemia",[1]; [9],4 (2.4) count (percentage)
same,"TRAE, ≥ Grade 3: Nausea",[1]; [9],2 (1.2) count (percentage)
same,"TRAE, ≥ Grade 3: Neutrophil counts decreased",[1]; [9],1 (0.6) count (percentage)
same,"TRAE, ≥ Grade 3: Platelet counts decreased",[1]; [9],1 (0.6) count (percentage)
same,"TRAE, ≥ Grade 3: Prolonged QT interval",[1]; [9],26 (15.8) count (percentage)
same,"TRAE, ≥ Grade 3: Proteinuria",[1]; [9],0 count (percentage)
same,"TRAE, ≥ Grade 3: Rash",[1]; [9],7 (4.2) count (percentage)
same,"TRAE, ≥ Grade 3: Vomiting",[1]; [9],2 (1.2) count (percentage)
same,"TRAE, ≥ Grade 3: Weight loss",[1]; [9],0 count (percentage)
same,"TRAE, ≥ Grade 3: White blood cell counts decreased",[1]; [9],2 (1.2) count (percentage)
same,≥ grade-3 TRAE decreased neutrophil counts,[1]; with previous immunotherapy,7.0%
same,≥ grade-3 TRAE hypertension,[1]; with previous immunotherapy,0%
same,≥ grade-3 TRAE prolonged QT interval,[1]; with previous immunotherapy,27.9%
same,≥ grade-3 TRAE decreased neutrophil counts,[1]; without previous immunotherapy,0.6%
same,≥ grade-3 TRAE hypertension,[1]; without previous immunotherapy,8.5%
same,≥ grade-3 TRAE prolonged QT interval,[1]; without previous immunotherapy,15.8%
same,IC50,[2],14 nM
same,IC50,"[3]; KYSE-150, metabolite comparison, read-out: IC50",1080 nM
same,IC50,"[3]; KYSE-150, read-out: IC50",1080 ± 220 nM
same,IC50,"[3]; KYSE-150, read-out: IC50, proliferation",1080 ± 220 nM
same,RTV ±SD,[4]; 25 mg/kg,7.2±1.0
same,T/C,[4]; 25 mg/kg,45.3%
same,Terminal Tumor Volume,[4]; 25 mg/kg,1424.3±410.0** mm^3
same,RTV ±SD,[4]; 50 mg/kg,2.0±1.1
same,T/C,[4]; 50 mg/kg,12.8%
same,Terminal Tumor Volume,[4]; 50 mg/kg,478.5±307.8** mm^3
same,RTV ±SD,[4]; 75 mg/kg,1.2±0.3
same,T/C,[4]; 75 mg/kg,7.6%
same,Terminal Tumor Volume,[4]; 75 mg/kg,288.9±162.6** mm^3
same,excretion in original form,[5]; bile,3.91%
same,excretion in original form,[5]; feces,27.5%
same,excretion in original form,[5]; urine,2.18%
same,total excretion rate,[5]; urine and feces,29.7%
same,IC50,[6],589 nM
same,IC50,[7],1360 nM
